Entries after “also recorded” stand apart in the source; their conditions may differ.
How the values were obtained:
NO signaling in DC = assay: NO production in bone marrow-derived CD11c+ dendritic cells (DAF-2DA); type: cell-based, mouse; details: 100 μg/ml 15mer peptide; Balb/c DC; compared to ISL-negative peptides
Experimental: Bone marrow cells from Balb/c (A and B) or DBA/1 (C and D) mice were differentiated into DCs in culture with GM-CSF ([…]) and IL-4 ([…]). CD11c+ DCs were purified using magnetic beads with >95% purity. DCs were then incubated with SE-positive (65-79*0401 or 65-79*0404), or with SE-negative (65-79*0402 or 65-79*0403) 15mer peptides and NO production was measured as described below. The results are expressed as mean±SEM fluorescence units (FU), or FU per minute. *p<0.01 compared to all ligand controls.
DCs play a key role in immune regulation. […] DC cells were incubated over time with 100 μg/ml of ISL-positive or -negative 15mer peptides, and NO production was measured.
To determine the rate of NO production, cells were loaded with 20 μM of the fluorescent NO probe 4,5-diaminofluorescein diacetate (DAF-2DA) and the fluorescence level was recorded every 5 minutes over a period of 500 minutes using a Fusion αHT system (PerkinElmer Life Sciences) at an excitation wavelength of 488 nm and emission wavelength of 515 nm. To determine IDO enzymatic activity, the generation of its product, kynurenine was measured (Takikawa et al. 1988. J Biol Chem 263:2041-2048.; herein incorporated by reference in its entirety). Cytokine concentrations were measured in cell culture supernatants using a Luminex platform (Millipore Corporation, Danvers, Mass.). […]

trypsin and chymotrypsin = assay: Trypsin/chymotrypsin stability assay; details: after 30 minutes, 37° C., pH 8
CD8+ and CD8− DC = assay: Cytokine production by splenic DC subsets (Luminex); type: cell-based, mouse
Experimental: Splenic CD8+ and CD8− DC were isolated from DBA/1 mice as above and cultured in 96-well plates over time in the presence or absence of ISL-positive (65-79*0401) or ISL-negative (65-79*0402) peptides (50 μg/ml). At various time points thereafter, supernatants were collected and assayed for cytokine content, using the Luminex platform.
DBA/1 splenic unfractionated CD11c+ DCs (CD11c+), or their purified CD11c+CD8+ DCs (CD8+) or CD11c+CD8− DCs (CD8−) subsets were cultured with the ISL 65-79*0401 or ISL-negative control 65-79*0402 or medium. Supernatants were collected at different time points and assayed for cytokine content using a Luminex platform.
To determine the rate of NO production, cells were loaded with 20 μM of the fluorescent NO probe 4,5-diaminofluorescein diacetate (DAF-2DA) and the fluorescence level was recorded every 5 minutes over a period of 500 minutes using a Fusion αHT system (PerkinElmer Life Sciences) at an excitation wavelength of 488 nm and emission wavelength of 515 nm. To determine IDO enzymatic activity, the generation of its product, kynurenine was measured (Takikawa et al. 1988. J Biol Chem 263:2041-2048.; herein incorporated by reference in its entirety). Cytokine concentrations were measured in cell culture supernatants using a Luminex platform (Millipore Corporation, Danvers, Mass.). In some experiments, cytokines were determined using ELISA (Quantikine®, R&D Systems, Minneapolis, Minn.) following the manufacture's instruction.

[1] = system: Human fibroblast M1 cells; details: previously determined; cited from earlier work
CD4+IL17A+ T cells = assay: Th17 differentiation and IL-17 production in DC/CD4+ T cell co-culture; type: cell-based, mouse; details: peptide-stimulated DCs; naïve T cells, Th17-polarizing cocktail, 6 days
Experimental: DBA/1 bone marrow-derived CD11c+DCs were cultured overnight in the presence or absence of (A) ISL 65-79*0401 or ISL-negative control 65-79*0402, or (B) ISL-positive T-DRB1*0401 tetramers, versus ISL-negative T-DRB1*0301, or T-DRB1*1501 tetramers. Syngeneic splenic CD4+CD25−CD62L+CD44− naïve T cells plus a Th17-differentiation cytokine/antibody cocktail were then added to the culture and incubated for 6 days. Intracellular IL17A was determined by flow cytometry. On the left: a representative experiment, one of three repetitions, showing percentages of CD4+IL17A+ cells as dot plots. On the right: bar graphs show results presented as mean percentage±SD of replicate samples.
(A) DBA/1 bone marrow-derived CD11c+ DCs were cultured overnight with different peptidic ligands as above. Syngeneic splenic CD4+ T cells plus a Th17-polarizing cocktail were added to the culture and incubated for 6 days. IL-17A-positive cells were quantified by flow cytometry. On the left: dot plots showing percentage of CD4+IL17A+ T cells. […]
After 6 days, cells were stimulated with PMA (5 ng/ml) and ionomycin (500 ng/ml) for the last 6 hrs of culture. […] Mean florescence intensity and percentages of stained cells were determined by flow cytometry.

In the case of H-KDLLEQKRAAVDTYC-NH2 [65-79*0401], the NO production (NO signaling in DC) is reported as “much more robust NO production”, the “degradation by trypsin/chymotrypsin (HPLC)” value (trypsin and chymotrypsin) is reported as “degraded completely” and the “IL-6 / cytokine production” value (CD8+ and CD8− DC; CD11c+CD8+ DCs, 50 μg/ml peptide) is reported as “no production of any cytokines; also recorded: not in the CD11c+CD8+ subset”. The “time point of IL-6 peak” value (CD8+ and CD8− DC; CD11c+CD8− DCs) was 24 h, the IL-6 production (CD8+ and CD8− DC; CD11c+CD8− DCs, 50 μg/ml peptide) was “robust production” and the “production of other cytokines (IL-4, IL-10, IL-12, IL-1β, TGFβ)” value (CD8+ and CD8− DC; splenic DCs) was “did not show any increased production”. The “optimal concentration for NO production” value [1] was 50 µM and the “differentiation of CD4+IL17A+ T cells” value (CD4+IL17A+ T cells) was “significant increase”.
